Results on 11 compounds are retold here after PMC6562865, “Vitis vinifera L. Leaf Extract Inhibits In Vitro Mediators of Inflammation and Oxidative Stress Involved in Inflammatory-Based Skin Diseases” (Antioxidants, 2019).

Data set [1] can be described thus: In vitro skin permeation study, Franz diffusion cell method. It counts as in vitro ADME, human. To be noted: for recovery: human. The source says:
VVWE was characterized by a validated HPLC-DAD method as previously described. Briefly, two different HPLC methods coupled with a Diode Array Detector (DAD) have been used, the first for anthocyanin detection at 520 nm by the use of a Synergi 4u MAX-RP 80 Å column (250 × 4.60 mm × 4 μm) (Phenomenex, Torrance, CA, USA) and the second for flavonols and caffeic acid derivative detection at 360 nm by Synergi 4u MAX-RP 80 Å column (250 × 2 mm × 4 μm) (Phenomenex, Torrance, CA, USA). The anthocyanins standards, hyperoside and kaempferol-3-O-glucoside, were from Extrasynthese (Genay, France); all the other standards and solvents were bought from Sigma-Aldrich (St. Louis, MO, USA).
The human epidermis membrane used for in vitro permeation studies was obtained from the abdominal skin of a single donor. The epidermis was prepared according to the heat separation method, as previously reported.
Ex vivo skin permeation study: the study was performed using the Franz diffusion cell method. The human epidermis was mounted carefully on the receiver compartment of the Franz’s cell with the stratum corneum side in contact with donor solution. The receiver compartment was filled with freshly prepared degassed HCl 0.1 M solution (receiver phase). VVWE (150 mg) solubilized in 0.1 M HCl:EtOH (50:50, v/v) was loaded in the donor compartment (0.5 mL). At predetermined intervals (1, 5, 7, 24, 32, 48 h), 0.2-mL samples were removed from the receiver compartment and immediately replaced with fresh receiver phase. Sink conditions were maintained throughout the experiment. The samples were assayed by HPLC analysis. Four parallel experiments were performed.

The next data set relates to IL-8. Kind of data set: IL-8 release in HaCaT cells (ELISA). To be noted: 0.1–100 μM, up to the maximum concentration tested (100 μM). It counts as cell-based, human. How it is done: Cells were grown in 24-well plates for 48 h (30,000 cells per well) before the cytokine treatment. IL-8 was quantified using a Human Interleukin-8 ELISA Development Kit as previously described. Preliminary time-course experiments were performed to set the best conditions for further experiments. HaCaT were treated with TNF-α (10 ng/mL), LPS (5 μg/mL), or H2O2 (100 μM), for 3, 6, 24, and 30 h. The IL-8 secretion induced by TNF-α or LPS was tested after 6 h of treatment, while the 24-h time point was chosen for H2O2. Epigallocatechin-3-gallate (EGCG) (20 μM) was used as the reference inhibitor of IL-8 secretion.
HaCaT cells were grown in 24-well plates for 48 h (30,000 cells per well), washed with phosphate-buffered saline (PBS), and exposed to UVB (40 mJ/cm^2) light source (Triwood 31/36, W36, V230, Helios Italquartz, Milano, Italy) in a glass bath. Radiation time (about 50 s) was adjusted for each experimental day, measuring energy emission by the LP 471 UVB probe (Delta OHM, Padova, Italy). After radiation, serum free fresh culture medium was immediately added. For the evaluation of IL-8 release, cells were treated for additional 9 h, a time point selected in preliminary time-course experiments. For NF-κB (p65) translocation, HaCaT cells were treated for 1 h after UVB radiation. EGCG (20 μM) was used as reference inhibitor.

Where [2] appears, read: human epidermis, Franz cell, 150 mg VVWE, four replicates, read-out: Permeated Amount (% Recovery) (converted).
The mark [3] stands for this setting: human epidermis, Franz cell, 150 mg VVWE, four replicates, read-out: Retained Amount in the Epidermidis (% Recovery) (converted).
Setting [4] is: µg per g VVWE, human epidermis, Franz cell, 150 mg VVWE.
[5] abbreviates: µg per g VVWE, human epidermis, Franz cell, 150 mg VVWE, 48 h, receiver phase.
Where [6] appears, read: human epidermis, Franz cell, 150 mg VVWE, four replicates.

Read-outs that look alike come from different tables or passages of the source.

For the compound `O=c1c(O[C@@H]2O[C@H](CO)[C@H](O)[C@H](O)[C@H]2O)c(-c2ccc(O)c(O)c2)oc2cc(O)cc(O)c12` [Hyperoside], the recovery is 0.02% in data set [1] (setting [2]) and 0.058% in data set [1] (setting [3]). Also, the “Retained Amount in the Epidermidis ± SD” value in data set [1] (setting [4]) came to 1.34 ± 1.43 µg/g. Moreover, in data set [1] (setting [5]), the “Permeated Amount ± SD” value stood at 0.47 ± 0.68 µg/g.

For the compound `OC[C@H]1O[C@@H](Oc2cc3c(O)cc(O)cc3[o+]c2-c2ccc(O)c(O)c2)[C@H](O)[C@@H](O)[C@@H]1O` [Cyanidin 3-O-glucoside], in data set [1] (setting [6]), the “Permeated Amount (% Recovery)” value is listed as 0.071% and the “Retained Amount in the Epidermidis (% Recovery)” value (from here on “Retained Amount … (% Recovery)”) stood at 0.013%. Also, in data set [1] (setting [4]), the “Retained Amount in the Epidermidis ± SD” value amounted to 0.30 ± 0.60 µg/g. The “Permeated Amount ± SD” value in data set [1] (setting [5]) stood at 1.63 ± 2.08 µg/g.

Consider `OC[C@H]1O[C@@H](Oc2cc3c(O)cc(O)cc3[o+]c2-c2cc(O)c(O)c(O)c2)[C@H](O)[C@@H](O)[C@@H]1O` [Delphinidin 3-O-glucoside], for which, in data set [1] (setting [6]), the “Permeated Amount (% Recovery)” value was 0.050% and the “Retained Amount … (% Recovery)” value is 0.004%. Besides, in data set [1] (setting [4]), the “Retained Amount in the Epidermidis ± SD” value stood at 0.04 ± 0.08 µg/g. In data set [1] (setting [5]), the “Permeated Amount ± SD” value amounted to 0.48 ± 0.68 µg/g.

As to `O=c1c(O[C@@H]2O[C@H](CO)[C@@H](O)[C@H](O)[C@H]2O)c(-c2ccc(O)cc2)oc2cc(O)cc(O)c12` [Kaempferol 3-O-glucoside], in data set [1] (setting [6]), the “Permeated Amount (% Recovery)” value was found to be 0.055% and the “Retained Amount … (% Recovery)” value is 0.094%. For the same compound, in data set [1] (setting [4]), the “Retained Amount in the Epidermidis ± SD” value is listed as 3.53 ± 3.90 µg/g. Also, the “Permeated Amount ± SD” value in data set [1] (setting [5]) is recorded as 2.09 ± 1.70 µg/g.

Take `COc1cc(-c2[o+]c3cc(O)cc(O)c3cc2O[C@@H]2O[C@H](CO)[C@@H](O)[C@H](O)[C@H]2O)ccc1O` [Peonidin 3-O-glucoside]: in data set [1] (setting [6]), the “Permeated Amount (% Recovery)” value came to 0.114% and the “Retained Amount … (% Recovery)” value stood at 0.030%. In addition, the “Retained Amount in the Epidermidis ± SD” value in data set [1] (setting [4]) came out at 0.58 ± 1.17 µg/g. Moreover, in data set [1] (setting [5]), the “Permeated Amount ± SD” value is recorded as 2.17 ± 2.72 µg/g.

As for `COc1cc(-c2[o+]c3cc(O)cc(O)c3cc2O[C@@H]2O[C@H](CO)[C@@H](O)[C@H](O)[C@H]2O)cc(OC)c1O` [Malvidin 3-O-glucoside], in data set [1] (setting [6]), the “Permeated Amount (% Recovery)” value is on record as 0.072% and the “Retained Amount … (% Recovery)” value is on record as 0.023%. The “Retained Amount in the Epidermidis ± SD” value in data set [1] (setting [4]) is recorded as 0.29 ± 0.58 µg/g. In addition, the “Permeated Amount ± SD” value in data set [1] (setting [5]) came out at 0.92 ± 1.22 µg/g.

With `O=C(/C=C/c1ccc(O)c(O)c1)O[C@@H](C(=O)O)[C@@H](O)C(=O)O` [Caftaric acid], the recovery was 0.476% in data set [1] (setting [2]) and 0.102% in data set [1] (setting [3]). The “Retained Amount in the Epidermidis ± SD” value in data set [1] (setting [4]) was 10.20 ± 9.00 µg/g; in data set [1] (µg per g VVWE, human epidermis, Franz cell, 150 mg VVWE, listed as caftaric acid), 10.20 µg/g. Moreover, the “Permeated Amount ± SD” value was 47.59 ± 27.64 µg/g in data set [1] (setting [5]) and 47.59 µg/g in data set [1] (µg per g VVWE, human epidermis, Franz cell, 150 mg VVWE, 48 h, receiver phase, listed as caftaric acid). The “IL-8 release induced by TNF-α, pure compounds” value (“IL-8 release induced by TNF-α” for short) in the data set with IL-8 is “failed to reduce IL-8 release”.

Regarding `COc1cc(-c2[o+]c3cc(O)cc(O)c3cc2O[C@@H]2O[C@H](CO)[C@@H](O)[C@H](O)[C@H]2O)cc(O)c1O` [Petunidin 3-O-glucoside], in data set [1], the “Permeated Amount (% Recovery)” value turned out to be 0.058% and the “Permeated Amount ± SD” value amounted to 0.38 ± 0.53 µg/g.

Consider `O=c1c(O[C@@H]2O[C@H](CO)[C@@H](O)[C@H](O)[C@H]2O)c(-c2ccc(O)c(O)c2)oc2cc(O)cc(O)c12` [Quercetin 3-O-glucoside], for which the recovery in data set [1] (setting [2]) was 0.04%; in data set [1] (setting [3]) it was 0.063%. Moreover, the “Retained Amount in the Epidermidis ± SD” value in data set [1] (setting [4]) amounted to 13.58 ± 15.88 µg/g; in data set [1] (µg per g VVWE, human epidermis, Franz cell, 150 mg VVWE, listed as quercetin 3-O-glucoside) it was 13.58 µg/g. Also, the “Permeated Amount ± SD” value was found to be 8.74 ± 9.50 µg/g in data set [1] (setting [5]) and 8.74 µg/g in data set [1] (µg per g VVWE, human epidermis, Franz cell, 150 mg VVWE, 48 h, receiver phase, listed as quercetin 3-O-glucoside). The “IL-8 release induced by TNF-α” value with IL-8 is on record as “failed to reduce IL-8 release”.

Consider `O=C(O)[C@H]1O[C@@H](Oc2c(-c3ccc(O)c(O)c3)oc3cc(O)cc(O)c3c2=O)[C@H](O)[C@@H](O)[C@@H]1O` [Quercetin 3-O-glucuronide], for which the “Permeated Amount (% Recovery)” value in data set [1] is on record as 0.177%. For the same compound, the “IL-8 release induced by TNF-α” value with IL-8 is “failed to reduce IL-8 release”.

In the case of `C[C@@H]1O[C@@H](OC[C@H]2O[C@@H](Oc3c(-c4ccc(O)c(O)c4)oc4cc(O)cc(O)c4c3=O)[C@H](O)[C@@H](O)[C@@H]2O)[C@H](O)[C@H](O)[C@H]1O` [Rutin], the recovery in data set [1] (setting [2]) is 0.023%; in data set [1] (setting [3]) it was 0.061%. The “Retained Amount in the Epidermidis ± SD” value in data set [1] (setting [4]) is recorded as 0.80 ± 0.91 µg/g. In addition, in data set [1] (setting [5]), the “Permeated Amount ± SD” value was 0.30 ± 0.35 µg/g.
